The values below come from ChEMBL document CHEMBL1147797, “Construction of human ghrelin receptor (hGHS-R1a) model using a fragmental prediction approach and validation through docking analysis” (J Med Chem, 2006).

In this test the target is Growth hormone secretagogue receptor type 1 (Homo sapiens, UniProt Q92847). In words: Activity at human GHS-R1a receptor in rat pituitary cells assessed as GH release. In kind it is cell-based, Pituitary gland cell.
Chain of Growth hormone secretagogue receptor type 1 (Q92847 whole entry): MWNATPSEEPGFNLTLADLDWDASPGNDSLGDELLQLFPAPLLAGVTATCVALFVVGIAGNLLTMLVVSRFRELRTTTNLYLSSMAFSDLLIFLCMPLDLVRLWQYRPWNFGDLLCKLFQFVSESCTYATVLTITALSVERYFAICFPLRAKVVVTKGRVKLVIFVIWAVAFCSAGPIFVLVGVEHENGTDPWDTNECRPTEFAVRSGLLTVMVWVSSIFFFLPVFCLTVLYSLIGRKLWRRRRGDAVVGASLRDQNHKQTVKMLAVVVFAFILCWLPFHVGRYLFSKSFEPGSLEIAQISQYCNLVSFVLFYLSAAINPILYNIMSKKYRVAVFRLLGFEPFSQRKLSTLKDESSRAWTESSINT
For `CC(C)(N)C(=O)N[C@H](CCCc1ccccc1)C(=O)N1CCC2(CC1)CSc1ccccc12`, the EC50 – broadly, the concentration giving half of the maximal effect – was found to be 4.8 nM.

In the case of `CC(C)(N)C(=O)N[C@H](Cc1c[nH]c2ccccc12)C(=O)N1CCC2(CC1)CSc1ccccc12`, the EC50 was determined as 5.6 nM.

On to `CC(C)(N)C(=O)N[C@H](Cc1c[nH]c2ccccc12)C(=O)N1CCC2(CC1)CS(=O)(=O)c1ccccc12`, for which the concentration giving a half-maximal response (EC50) was 2.1 nM.

Take `CC(C)(N)C(=O)N[C@H](COCc1ccccc1)C(=O)N1CCC2(CC1)CSc1ccccc12`: the half-maximal effective concentration (EC50) was found to be 10 nM.

On to `CC(C)(N)C(=O)N[C@H](COCc1ccccc1)C(=O)N1CCC2(CC1)C[S+]([O-])c1ccccc12` (stereo partly drawn), for which the EC50 was determined as 8.5 nM.

Take `CC(C)(N)C(=O)N[C@H](CCCc1ccccc1)C(=O)N1CCC2(CC1)C[S+]([O-])c1ccccc12` (stereo partly drawn): the EC50 was 2.5 nM.

For `CC(C)(N)C(=O)N[C@H](CCCc1ccccc1)C(=O)N1CCC2(CC1)CS(=O)(=O)c1ccccc12`, the EC50 came out at 1.1 nM.

As for `CC(C)(N)C(=O)N[C@H](CCCc1ccccc1)C(=O)N1CCC2(CC1)COc1ccccc12`, the EC50 is 2.7 nM.

Turning to `CC(C)(N)C(=O)N[C@H](COCc1ccccc1)C(=O)N1CCC2(CC1)COc1ccccc12`, the concentration for a half-maximal effect (EC50) was found to be 8.5 nM.

`CC(C)(N)C(=O)N[C@H](CCc1ccccc1)C(=O)N1CCC2(CC1)CS(=O)(=O)c1ccccc12`: the EC50 amounted to 6 nM.

Consider `CC(C)(N)C(=O)N[C@H](CCc1ccccc1)C(=O)N1CCC2(CC1)CSc1ccccc12`, for which the EC50 is 57 nM.

Consider `CC(C)(N)C(=O)N[C@H](COCc1ccccc1)C(=O)N1CCC2(CC1)CS(=O)(=O)c1ccccc12`, for which the concentration giving a half-maximal response (EC50) worked out at 5 nM.

Take `CC(C)(N)C(=O)N[C@H](Cc1c[nH]c2ccccc12)C(=O)N1CCC2(CC1)C[C@@H](O)c1ccccc12`: the EC50 was determined as 0.6 nM.

On to `CNC(C)(C)C/C=C/C(=O)N(C)[C@H](Cc1ccc2ccccc2c1)C(=O)N(C)Cc1ccccc1`, for which the concentration giving a half-maximal response (EC50) came out at 3 nM.

`CCN1N=C2CCN(C(=O)[C@@H](COCc3ccccc3)NC(=O)C(C)(C)N)C[C@]2(Cc2ccccc2)C1=O`: the half-maximal effective concentration (EC50) worked out at 4 nM.

Regarding `CN1N=C2CCN(C(=O)[C@@H](COCc3ccccc3)NC(=O)C(C)(C)N)C[C@]2(Cc2ccccc2)C1=O`, the EC50 was found to be 3 nM.

Turning to `CCNC(=O)[C@@]1(Cc2ccccc2)CCCN(C(=O)[C@@H](Cc2c[nH]c3ccccc23)NC(=O)C(C)(C)N)C1`, the EC50 was 0.8 nM.

Consider `CC(C)(N)C(=O)N[C@H](CCCc1ccccc1)C(=O)N1CCC2(CCc3ccccc32)CC1`, for which the EC50 was 10 nM.

On to `CC(C)(N)C(=O)N[C@@H]1CCc2ccccc2N(Cc2ccc(-c3ccccc3CNC(=O)NCCO)cc2)C1=O`, for which the EC50 is 2 nM.

As for `CCNC(=O)NCc1ccccc1-c1ccc(CN2C(=O)[C@H](NC(=O)C(C)(C)N)CCc3ccccc32)cc1`, the EC50 came to 6 nM.

`CNC(C)(C)C/C=C/C(=O)N(C)[C@H](Cc1ccc2ccccc2c1)C(=O)N(C)CCc1ccccc1OCCO`: the half-maximal effective concentration (EC50) is 5 nM.

Consider `CNC(C)(C)C/C=C/C(=O)N(C)[C@H](Cc1ccc2ccccc2c1)C(=O)N(C)CCc1cccs1`, for which the EC50 was found to be 0.8 nM.

For the compound `CN(CCc1cccs1)C(=O)[C@@H](Cc1ccc(-c2ccccc2)cc1)N(C)C(=O)/C=C/CC(C)(C)N`, the concentration giving a half-maximal response (EC50) was 5 nM.

`CN(CCc1ccccc1NS(C)(=O)=O)C(=O)[C@@H](Cc1ccc2ccccc2c1)N(C)C(=O)/C=C/CC(C)(C)N`: the EC50 was found to be 18 nM.

In the case of `CC(C)(N)C(=O)N[C@H](COCc1ccccc1)C(=O)N1CCC2=NNC(=O)[C@@]2(Cc2ccccc2)C1`, the EC50 turned out to be 3 nM.

In the case of `CN(CCc1cccs1)C(=O)[C@@H](Cc1ccc2ccccc2c1)N(C)C(=O)/C=C/CC(C)(C)N`, the 50% effective concentration (EC50) was 7.5 nM.

For the compound `CC(C)(N)C(=O)N[C@H](COCc1ccccc1)C(=O)N1CCC2(CCc3ccccc32)CC1`, the EC50 worked out at 17 nM.

Consider `CCOC(=O)[C@@]1(Cc2ccccc2)CCCN(C(=O)[C@@H](Cc2c[nH]c3ccccc23)NC(=O)C(C)(C)N)C1`, for which the EC50 turned out to be 1.6 nM.

In the case of `CN(CCc1ccccc1OCCO)C(=O)[C@@H](Cc1ccc2ccccc2c1)N(C)C(=O)/C=C/CC(C)(C)N`, the EC50 was 5 nM.

In the case of `CNC(=O)NCc1ccccc1-c1ccc(CN2C(=O)[C@H](NC(=O)C(C)(C)N)CCc3ccccc32)cc1`, the concentration for a half-maximal effect (EC50) amounted to 1 nM.

Turning to `CC(C)(N)C(=O)N[C@H](CCc1ccccc1)C(=O)N1CCC2(CCc3ccccc32)CC1`, the EC50 came to 22 nM.

Turning to `CC(C)(N)C(=O)N[C@H](Cc1c[nH]c2ccccc12)C(=O)N1CCC2(CCc3ccccc32)CC1` [L-162752], the EC50 turned out to be 14 nM.

As for `CNC(=O)[C@@H](Cc1ccccc1)N(C)C(=O)[C@@H](Cc1ccc2ccccc2c1)N(C)C(=O)/C=C/CC(C)(C)N` [TABIMORELIN], the EC50 is 3 nM.
